Laboratory results from patent publication US20240182867A1, “CHEMICAL REPROGRAMMING OF HUMAN SOMATIC CELLS INTO PLURIPOTENT CELLS” (Peking University, priority 2021, published 2024).

Experiments:
human somatic cells = assay: hCiPSC colonies at the end of reprogramming after withdrawing individual chemicals from stage I or II; assay type: cell-based; settings: factor removed
Experimental: Cells were maintained at 37° C. with 21% 02 and 5% CO2. The induction medium was changed every 3-4 days. HEFs were seeded at a density of 1-1.5×10^4 cells per well of a 12-well plate in 15%. FBS-DMEM medium. Change the medium into stage I induction medium on the next day. For stage I induction, single layer epithelial-like cells would emerge at day 4-6 and approach 80%-100% confluence at day 8-12, then change the medium into stage II induction medium. For stage II induction, multi-layered colonies appeared after 8-12 days treatment and these cell colonies would continually grow larger. After totally 16-20 days' stage II treatment, change the medium into stage III condition. For stage III induction, 8-12 days treatment of stage III medium is required and then change the medium into stage IV condition. For stage IV induction, VPA (500 μM) was included in the first 4 days. Primary hCiPSC colonies would emerge after 6-8 days' treatment. At the end of stage IV, immunofluorescent staining of co-expression of OCT4 and NANOG was used to confirm the generation of primary hCiPSC colonies. Primary hCiPSC colony number was calculated as the number of the compact OCT4 positive colonies. Reprogramming efficiency was calculated as the number of primary hCiPSC colonies divided by the number of input HEFs.
In several experiments, to testing the reprogramming efficiency after removing each small molecules, the indicated small molecules were removed from the cocktails. The concentration of the small molecules used to regulate the same pathway or targets were indicated as follow: GSK3 inhibitors (CHIR99021: 3-15 μM; TD114-2: 0.5-2 μM; CHIR98014: 1-3 μM; GSK3βi XV: 0.05-0.2 μM); RA pathway agonists (TTNPB: 0.5-10 μM; Ch55: 1-5 μM; AM580: 0.1-1 μM); Rock inhibitors (TZV: 2-10 μM; Y27632: 2-15 μM; Fasudil: 2-10 μM; HA1100: 2-10 μM); TGFβ inhibitors (A8301: 0.1-5 μM; SB431542: 2-50 μM; LY364947: 0.5 μM; LY21: 0.5 μM; 616452: 10 μM).
In several experiments, to testing the reprogramming efficiency after regulate each small molecules, the indicated small molecules were removed from the cocktails. The concentration of the small molecules used to targeting the same pathway or targets were indicated as follow: GSK3 inhibitors (CHIR99021: 3-15 μM; TD114-2: 0.5-2 μM; CHIR98014: 1-3 μM; GSK3βi XV: 0.05-0.2 μM); TGFβ inhibitors (A8301: 0.2-5 μM; SB431542: 2-50 μM; 616452: 10 μM); RA pathway agonists (TTNPB: 0.2-10 μM; Ch55: 1-10 μM; AM580: 0.1-1 μM); Rock inhibitors (Y27632: 2-15 μM; Fasudil: 2-10 μM; HA1100: 2-10 μM; TZV: 2-10 μM); Smoothened agonists (SAG: 0.2-2 μM; Purmorphamine: 0.5-2 μM; Hg-Ag1.5: 0.5-1 μM; Human shh: 20-200 μM); histone demethylation inhibitors (Tranylcypromine: 2-50 μM; GSK2879: 0.02-2 μM; LSD-C76: 0.2-5 μM; S2101: 0.5-5 μM; LSD-2D: 0.2-5 μM; RN-1: 0.2-5 μM); DNMT inhibitors (5-azaC: 2-15 μM; Decitabine: 0.5-10 μM; RG108: 0.5-10 μM); JNK inhibitors (JNK-in-8: 0.2-2 μM; JNK-in-5: 0.5-1 μM; JNK-in-7: 0.2-2 μM; JNK-in-12: 0.2-0.5 μM); CBP/p300 bromodomain inhibitor (SGC-CBP30: 0.5-2 μM; I-CBP112: 0.5-5 μM; GNE272: 0.5-5μM; GNE409:0.5-5μM); Menin-MLL interaction inhibitor (VTP50469: 0.5-2μM; MI3454: 0.5-2μM; WDR5-IN-4: 0.5-2μM).

DNA CpG methylation = assay: DNA methylation levels after withdrawing individual chemicals from stage II; assay type: cell-based, human
Source text: (§1) In several experiments, to testing the reprogramming efficiency after regulate each small molecules, the indicated small molecules were removed from the cocktails. […]
To perform alignments of bisulfite-treated reads correctly, the Bismark Bisulfite Mapper pipeline was followed. […] Sequence reads were similarly transformed and mapped to prepared genomes using Bowtie2 with parameters set by Bismark. […] In this way, the number of reads were obtained that supported methylation and the number of reads covering every CpG site, non-CpG sites were not considered in later analysis.
To identify the sites showing evidence of methylation, binomial test was performed to each site on these counts to test whether the methylation counts are beyond bisulfite non-conversion events. […] Methylation level for each CpG site passed the test was defined as the fraction of reads supporting methylation out of reads that cover the site (mCpG/CpG). […] The mean CpG methylation level of each sample was calculated as the fraction of all reads supporting CpG methylation out of reads that cover CpG site (all mCpG / all CpG).

[1] = tested on: genes that activated at stage II; assay: Withdrawing individual chemicals from stage II: plasticity signatures and chromatin accessibility; assay type: cell-based, human
Experimental: as §1
Approximately 5×10^4 cells of each sample were collected and washed once with cold PBS and re-suspended in 50 μL Lysis buffer (10 mM Tris-HCl PH7.4, 10 mM NaCl, 3 mM MgCl2, 0.5% NP-40). […] All ATAC libraries were sequenced on an Illumina Novaseq 6000 platform and 150 bp paired-end reads were generated. […]
Quality control was performed using FastQC to all samples. The raw ATAC-seq reads were trimmed using Trimmomatic with parameter ‘[…]:NexteraPE-PE.fa:2:30:7:1:true LEADING:3 TRAILING:3 SLIDINGWINDOW:4:15 MINLEN:36’ to remove detected adapters. Then the clean reads were mapped to human reference genome hg19 using Bowtie2 with parameter ‘—very-sensitive’. […] Duplicated reads were removed using MarkDuplicates function of Picard tools. Low quality mapped reads and reads mapped to mitochondrial were filtered using Samtools. […]
Overlapped peaks in different samples were merged and defined sample specific peak sets using R package ChIPpeakAnno. […] The ATAC signal strength around peak region or gene promoter region was quantified using Deeptools.

SALL4 = assay: Withdrawing individual chemicals from stage II: SALL4 activation; assay type: cell-based, human
Experimental: as §1
Total RNA was isolated using Direct-zol RNA MiniPrep Kit (Zymo Research, R2053). cDNA was synthesized from 0.5-1 μg of total RNA using TransScript First-Strand cDNA Synthesis SuperMix (TransGen Biotech, AT311-03). qPCR was performed by using KAPA SYBR FAST qPCR Kit Master Mix (KAPA Biosystems, KM4101) on a CFX ConnectTM Real-Time System (Bio-Rad). The data were analyzed using the delta-delta Ct method. […]

other human kinases = settings: cited from earlier work
[2] = tested on: cellular retinoic acid binding protein (CRABP); settings: cited from earlier work

Compound: Nc1ncn([C@@H]2O[C@H](CO)[C@@H](O)[C@H]2O)c(=O)n1 [5-Azacytidine]
- generation of hCiPSCs (human somatic cells): greatly impaired
- development of a hypo-methylated state (DNA CpG methylation): required

Compound: Cc1cc(NC(=O)c2cccc(NC(=O)/C=C/CN(C)C)c2)ccc1Nc1nccc(-c2cccnc2)n1 [JNKIN8]
- opened chromatin status of the genes activated at stage II ([1]; chromatin accessibility analysis): essential
- acquisition of plasticity signatures ([1]; stage II): required
- generation of hCiPSCs (human somatic cells): greatly impaired
- activation of SALL4 (SALL4): required

Compound: CN(C)CCOc1ccc(-c2nc(-c3ccc4c(c3)CCC4=NO)c(-c3ccncc3)[nH]2)cc1 [SB590885, 5-[2-[4-[2-(Dimethylamino)ethoxy]phenyl]-5-(4-pyridinyl)-1H-imidazol-4-yl]-2,3-dihydro-1H-inden-1-one oxime]
- inhibition to other human kinases (other human kinases): no inhibition

Compound: CC(C)(C)c1cc(C(=O)/C=C/c2ccc(C(=O)O)cc2)cc(C(C)(C)C)c1 [Ch 55, 4-[(1E)-3-[3,5-bis(1,1-Dimethylethyl)phenyl]-3-oxo-1-propenyl]benzoic acid]
- affinity for CRABP [2]: low affinity
